Patent publication US8163771B2, “11 β-HSD1 modulators” (Exelixis, Inc., priority 2008, dated 2012)

The compounds below were run against T1, recombinant human 11 β-HSD1 (Homo sapiens, UniProt P28845) (assay: 11 β-HSD1 SPA Assay (Scintillation Proximity Assay)).
T1 construct: made in house; host or cells: E. coli
T1 sequence (P28845 whole entry): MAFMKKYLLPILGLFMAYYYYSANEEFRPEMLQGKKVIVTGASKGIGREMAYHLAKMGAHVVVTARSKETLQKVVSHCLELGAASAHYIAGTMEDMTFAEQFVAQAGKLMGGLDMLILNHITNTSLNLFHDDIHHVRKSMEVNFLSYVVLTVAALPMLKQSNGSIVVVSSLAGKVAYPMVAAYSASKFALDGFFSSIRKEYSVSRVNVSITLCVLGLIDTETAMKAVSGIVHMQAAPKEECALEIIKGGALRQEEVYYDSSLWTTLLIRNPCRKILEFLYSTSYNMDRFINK
Format: biochemical
In short: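 E. coli-expressed human enzyme (30-100 nM) with tritiated cortisone 40 nM and NADPH 1 mM in HEPES buffer pH7.4, 2 hours at room temperature. Stopped with protein A SPA beads carrying anti-cortisol antibody and glycyrrhetinic acid; counted after overnight incubation. IC50 from percent inhibition between no-enzyme and no-compound signals.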
For `C[C@H](NC(=O)c1ccc(N2C3CCC2CC(NC(=O)C(C)(C)Oc2ccc(F)cc2Cl)C3)nc1)C(F)(F)F` (stereo partly drawn) [Example 434, 6-(3-endo-{[2-(2-chloro-4-fluorophenoxy)-2-methylpropanoyl]amino}-8-azabicyclo[3.2.1]oct-8-yl)-N-[(2S)-1,1,1-trifluoropropan-2-yl]pyridine-3-carboxamide], the IC50 was less than 200 nM.
In the case of `CC(C)(Oc1ccc(Cl)cc1Cl)C(=O)N[C@H]1C[C@H]2CC[C@@H](C1)N2c1ccc(C(=O)NCC(F)(F)F)cc1F` [Example 129, 4-[3-endo-({2-[(2,4-dichlorophenyl)oxy]-2-methylpropanoyl}amino)-8-azabicyclo[3.2.1]oct-8-yl]-3-fluoro-N-(2,2,2-trifluoroethyl)benzamide], the IC50 is reported as less than 200 nM.
`CC(C)(Oc1ccc(F)c(C(F)(F)F)c1)C(=O)N[C@H]1C[C@H]2CC[C@@H](C1)N2c1ccc(C(=O)NCC(F)(F)F)cn1` [Example 188, 6-{3-endo-[(2-{[4-fluoro-3-(trifluoromethyl)phenyl]oxy}-2-methylpropanoyl)amino]-8-azabicyclo[3.2.1]oct-8-yl}-N-(2,2,2-trifluoroethyl)pyridine-3-carboxamide] was tested, and the IC50 was less than 200 nM.
`CC(C)(Oc1ccc(F)cc1Cl)C(=O)N[C@H]1C[C@H]2CC[C@@H](C1)N2c1ccc(S(C)(=O)=O)cn1` [Example 155, 2-[(2-chloro-4-fluorophenyl)oxy]-2-methyl-N-{8-[5-(methylsulfonyl)pyridin-2-yl]-8-azabicyclo[3.2.1]oct-3-endo-yl}propanamide] showed an IC50 of less than 200 nM.
With `CC(C)(Oc1cc(C(C)(C)O)c(Cl)cc1Cl)C(=O)N[C@H]1C[C@H]2CC[C@@H](C1)N2c1ccc(C(=O)NCC(F)F)cn1` [Example 429, 6-[3-endo-({2-[2,4-dichloro-5-(2-hydroxypropan-2-yl)phenoxy]-2-methylpropanoyl}amino)-8-azabicyclo[3.2.1]oct-8-yl]-N-(2,2-difluoroethyl)pyridine-3-carboxamide] the IC50 was less than 200 nM.
With `CC(C)(Oc1ccc(Cl)cc1Cl)C(=O)N[C@H]1C[C@H]2CC[C@@H](C1)N2c1cc(C(=O)NCC(F)(F)F)ccn1` [Example 171, 2-[3-endo-({2-[(2,4-dichlorophenyl)oxy]-2-methylpropanoyl}amino)-8-azabicyclo[3.2.1]oct-8-yl]-N-(2,2,2-trifluoroethyl)pyridine-4-carboxamide] the IC50 was less than 2000 nM.
Work on `CC(C)(Oc1ccc(Cl)cc1Cl)C(=O)NC1CC2CCC(C1)N2c1ccc(C(=O)NC2CC2(F)F)cn1` (stereo not drawn) [Example 268, 6-[3-endo-({2-[(2,4-dichlorophenyl)oxy]-2-methylpropanoyl}amino)-8-azabicyclo[3.2.1]oct-8-yl]-N-(2,2-difluorocyclopropyl)pyridine-3-carboxamide] yielded an IC50 of less than 200 nM.
In the case of `CC(C)(Oc1ccc(Cl)cc1CCO)C(=O)N[C@H]1C[C@H]2CC[C@@H](C1)N2c1ccc(C(=O)NCC(F)(F)F)cn1` [Example 383, 6-[3-endo-({2-[4-chloro-2-(2-hydroxyethyl)phenoxy]-2-methylpropanoyl}amino)-8-azabicyclo[3.2.1]oct-8-yl]-N-(2,2,2-trifluoroethyl)pyridine-3-carboxamide], the IC50 is reported as less than 200 nM.
`CC(C)(Oc1ncc(Cl)cc1Cl)C(=O)NC1CC2CCC(C1)N2c1ccc(C(=O)NC2CC2(F)F)cn1` (stereo not drawn) [Example 399, 6-(3-endo-(2-(3,5-dichloropyridin-2-yloxy)-2-methylpropanamido)-8-azabicyclo[3.2.1]octan-8-yl)-N-(2,2-difluorocyclopropyl) nicotinamide] was tested, and the IC50 was less than 200 nM.
For `CC(C)(Oc1ccc(Cl)cc1Cl)C(=O)N[C@H]1C[C@H]2CC[C@@H](C1)N2c1cccnc1` [Example 106, 2-[(2,4-dichlorophenyl)oxy]-2-methyl-N-(8-pyridin-3-yl-8-azabicyclo[3.2.1]oct-3-endo-yl)propanamide], the IC50 was less than 200 nM.
Compound `CC(C)(Oc1ncc(Cl)cc1F)C(=O)N[C@H]1C[C@H]2CC[C@@H](C1)N2c1ccc(C(=O)NCC(F)(F)F)cn1` [Example 127, 6-[3-endo-({2-[(5-chloro-3-fluoropyridin-2-yl)oxy]-2-methylpropanoyl}amino)-8-azabicyclo[3.2.1]oct-8-yl]-N-(2,2,2-trifluoroethyl)pyridine-3-carboxamide] has an IC50 of less than 200 nM.
With `CC(C)(Oc1ccccc1S(C)(=O)=O)C(=O)N[C@H]1C[C@H]2CC[C@@H](C1)N2c1ccc(C(=O)NCC(F)(F)F)cn1` [Example 300, 6-{3-endo-[(2-methyl-2-{[2-(methylsulfonyl)phenyl]oxy}-propanoyl)amino]-8-azabicyclo[3.2.1]oct-8-yl}-N-(2,2,2-trifluoroethyl)pyridine-3-carboxamide] the IC50 was less than 2000 nM.
`CC(C)(Oc1c(F)cc(F)cc1F)C(=O)N[C@H]1C[C@H]2CC[C@@H](C1)N2c1ccc(S(C)(=O)=O)cc1` [Example 260, 2-methyl-N-{8-[4-(methylsulfonyl)phenyl]-8-azabicyclo[3.2.1]oct-3-endo-yl}-2-[(2,4,6-trifluorophenyl)oxy]propanamide] showed an IC50 of less than 200 nM.
Work on `O=C(NCC(F)(F)F)c1ccc(N2[C@@H]3CC[C@H]2C[C@@H](NC(=O)C2(c4ccc(Cl)cc4)CC2)C3)nc1` [Example 22, 6-[3-endo-({[1-(4-chlorophenyl)cyclopropyl]carbonyl}amino)-8-azabicyclo[3.2.1]oct-8-yl]-N-(2,2,2-trifluoroethyl)pyridine-3-carboxamide] yielded an IC50 of less than 200 nM.
Compound `CC(C)(Oc1ccc(Cl)cc1OC(F)(F)F)C(=O)NC1CC2CCC(C1)N2c1ccc(C(=O)NCC(O)C(F)(F)F)cn1` (stereo not drawn) [Example 448, 6-[3-endo-({2-[4-chloro-2-(trifluoromethoxy)phenoxy]-2-methylpropanoyl}amino)-8-azabicyclo[3.2.1]oct-8-yl]-N-(3,3,3-trifluoro-2-hydroxypropyl)pyridine-3-carboxamide] has an IC50 of less than 200 nM.
`CC(C)(Oc1ccc(C#N)cc1)C(=O)N[C@H]1C[C@H]2CC[C@@H](C1)N2c1ccc(C(=O)NC2CC2)cn1` [Example 38, 6-[3-endo-({2-[(4-cyanophenyl)oxy]-2-methylpropanoyl}amino)-8-azabicyclo[3.2.1]oct-8-yl]-N-cyclopropylpyridine-3-carboxamide] gave an IC50 of less than 200 nM.
`CC(C)(Oc1ccc(F)cc1S(C)(=O)=O)C(=O)N[C@H]1C[C@H]2CC[C@@H](C1)N2c1ccc(C(N)=O)cn1` [Example 269, 6-{3-endo-[(2-{[4-fluoro-2-(methylsulfonyl)phenyl]oxy}-2-methylpropanoyl)amino]-8-azabicyclo[3.2.1]oct-8-yl}pyridine-3-carboxamide] gave an IC50 of less than 200 nM.
Compound `CC(C)(Oc1cc(Cl)c(F)cc1Cl)C(=O)N[C@H]1C[C@H]2CC[C@@H](C1)N2c1ccc(NS(C)(=O)=O)cn1` [Example 270, 2-[(2,5-dichloro-4-fluorophenyl)oxy]-2-methyl-N-(8-{5-[(methylsulfonyl)amino]pyridin-2-yl}-8-azabicyclo[3.2.1]oct-3-endo-yl)propanamide] has an IC50 of less than 200 nM.
For `CC(C)(Oc1cc(C(F)(F)F)ccc1F)C(=O)N[C@H]1C[C@H]2CC[C@@H](C1)N2c1ccc(S(C)(=O)=O)cn1` [Example 335, 2-{[2-fluoro-5-(trifluoromethyl)phenyl]oxy}-2-methyl-N-{8-[5-(methylsulfonyl)pyridin-2-yl]-8-azabicyclo[3.2.1]oct-3-endo-yl}propanamide], the IC50 was less than 2000 nM.
With `CC(C)(Oc1ccccc1Cl)C(=O)N[C@H]1C[C@H]2CC[C@@H](C1)N2c1ccc(C(=O)NCC(F)(F)F)cn1` [Example 29, 6-[3-endo-({2-[(2-chlorophenyl)oxy]-2-methylpropanoyl}amino)-8-azabicyclo[3.2.1]oct-8-yl]-N-(2,2,2-trifluoroethyl)pyridine-3-carboxamide] the IC50 was less than 200 nM.
With `CC(C)(Oc1cc(C(C)(C)O)c(Cl)cc1Cl)C(=O)N[C@H]1C[C@H]2CC[C@@H](C1)N2c1ccc(C(=O)O)cn1` [Example 474, 6-[3-endo-({2-[2,4-dichloro-5-(2-hydroxypropan-2-yl)phenoxy]-2-methylpropanoyl}amino)-8-azabicyclo[3.2.1]oct-8-yl]pyridine-3-carboxylic acid] the IC50 was less than 2000 nM.
For `O=C(NC1CC1)c1ccc(N2[C@@H]3CC[C@H]2C[C@@H](NC(=O)C2(c4ccc(Cl)cc4)CC2)C3)cc1` [Example 62, 4-[3-endo-({[1-(4-chlorophenyl)cyclopropyl]carbonyl}amino)-8-azabicyclo[3.2.1]oct-8-yl]-N-cyclopropylbenzamide], the IC50 was less than 200 nM.
Compound `CC(C)(Oc1ccc(C(F)(F)F)cn1)C(=O)N[C@H]1C[C@H]2CC[C@@H](C1)N2c1ccc(C(N)=O)cn1` [Example 150] has an IC50 of less than 200 nM.
`CC(C)(Oc1c(Cl)cc(F)cc1C(F)(F)F)C(=O)N[C@H]1C[C@H]2CC[C@@H](C1)N2c1ccc(S(N)(=O)=O)cn1` [Example 251, N-{8-[5-(aminosulfonyl)pyridin-2-yl]-8-azabicyclo[3.2.1]oct-3-endo-yl}-2-{[2-chloro-4-fluoro-6-(trifluoromethyl)phenyl]oxy}-2-methylpropanamide] gave an IC50 of less than 200 nM.
With `N#Cc1ccnc(N2[C@@H]3CC[C@H]2C[C@@H](NC(=O)C2(c4ccc(Cl)cc4)CC2)C3)c1` [Example 18, 1-(4-chlorophenyl)-N-[8-(4-cyanopyridin-2-yl)-8-azabicyclo[3.2.1]oct-3-endo-yl]cyclopropanecarboxamide] the IC50 was less than 2000 nM.
Compound `CC(C)(Oc1ccc(Cl)cc1S(C)(=O)=O)C(=O)N[C@H]1C[C@H]2CC[C@@H](C1)N2c1ccc(C(N)=O)cn1` [Example 334, 6-{3-endo-[(2-{[4-chloro-2-(methylsulfonyl)phenyl]oxy}-2-methylpropanoyl)amino]-8-azabicyclo[3.2.1]oct-8-yl}pyridine-3-carboxamide] has an IC50 of less than 200 nM.
For `CC(C)(Oc1ccccc1C(F)(F)F)C(=O)N[C@H]1C[C@H]2CC[C@@H](C1)N2c1ccc(C(=O)NCC(F)(F)F)cn1` [Example 112, 6-{3-endo-[(2-methyl-2-{[2-(trifluoromethyl)phenyl]oxy}propanoyl)amino]-8-azabicyclo[3.2.1]oct-8-yl}-N-(2,2,2-trifluoroethyl)pyridine-3-carboxamide], the IC50 was less than 200 nM.
